The numbers were not newly measured in patent publication US11229674B1, “Nutraceuticals for suppressing indolamine 2,3 deoxygenase” (Therapeutic Solutions International, Inc., priority 2020, dated 2022), which cites them from elsewhere.

Data set [1] has as its target T1, IDO (Mus musculus, UniProt P28776).
T1 construct: host or cells: tumour-bearing mice (whole animal)
Conditions: pregnant mice, allogeneic fetuses.

For data set [2], the target named is T1, IDO. Conditions: mice, combined with chemotherapeutic agents.

T1 sequence (P28776 whole entry): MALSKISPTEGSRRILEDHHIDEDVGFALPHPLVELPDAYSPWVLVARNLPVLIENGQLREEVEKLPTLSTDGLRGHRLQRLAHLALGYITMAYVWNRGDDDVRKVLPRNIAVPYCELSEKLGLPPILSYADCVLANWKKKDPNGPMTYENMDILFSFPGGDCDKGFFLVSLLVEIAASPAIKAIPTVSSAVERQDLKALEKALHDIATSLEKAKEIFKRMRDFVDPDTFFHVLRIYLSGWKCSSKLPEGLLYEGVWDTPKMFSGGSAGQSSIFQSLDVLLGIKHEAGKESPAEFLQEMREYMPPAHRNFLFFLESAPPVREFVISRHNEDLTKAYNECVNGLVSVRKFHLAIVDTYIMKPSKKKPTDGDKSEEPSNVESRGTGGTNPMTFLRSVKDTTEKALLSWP

In the case of `Cn1cc(CC(N)C(=O)O)c2ccccc21` (centres unmarked) [1MT], in data set [1], the Fetal allograft rejection entry is given as “rapid, T cell-induced rejection of all allogeneic concept”. The Tumor growth entry in data set [2] was “synergize with chemotherapeutic agents to reduce tumor growth”.
